Measured values as given in ChEMBL document CHEMBL1201862, “PubChem BioAssay data set” (2004).
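How tested: cells in 96-well plates exposed to compound for 48 hours at five concentrations. GI50 marks 50% less growth.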 Active and inactive are the calls of the source. Cut-off read from the data, not from the text of the source: active = GI50 up to about 1.1 µM and inactive = higher.

Assays:
Assay in all cases: growth of human tumour cells (NCI), 48 h
EKVX = test system: EKVX
HCC 2998 = test system: HCC 2998
HCT-116 = test system: HCT-116
HCT-15 = test system: HCT-15
HOP-62 = test system: HOP-62
K562 = test system: K562
LOX IMVI = test system: LOX IMVI
Malme-3M = test system: Malme-3M
NCI-H460 = test system: NCI-H460
OVCAR-3 = test system: OVCAR-3
SK-MEL-28 = test system: SK-MEL-28
SN12C = test system: SN12C
UACC-62 = test system: UACC-62
UO-31 = test system: UO-31
MOLT-4 = test system: MOLT-4
OVCAR-5 = test system: OVCAR-5

COC(=O)C1CC2(CC3=C1CCCC3)OCCO2 (configuration not stated)
GI50 (EKVX): > 100 µM (inactive)
GI50 (HCC 2998): > 100 µM (inactive)
GI50 (HCT-116): > 100 µM (inactive)
GI50 (HCT-15): > 100 µM
GI50 (HOP-62): > 100 µM (inactive)
GI50 (K562): > 100 µM (inactive)
GI50 (LOX IMVI): > 100 µM (inactive)
GI50 (Malme-3M): > 100 µM (inactive)
GI50 (NCI-H460): > 100 µM (inactive)
GI50 (OVCAR-3): > 100 µM (inactive)
GI50 (SK-MEL-28): > 100 µM (inactive)
GI50 (SN12C): > 100 µM (inactive)
GI50 (UACC-62): > 100 µM (inactive)
GI50 (UO-31): > 100 µM (inactive)

Cc1c(C(=O)C/C(=N/NC(=O)c2ccccc2)C(=O)Nc2ccc(Cl)cc2)[n+]([O-])c2ccccc2[n+]1[O-]
GI50 (HCT-116): > 100 µM (inactive)
GI50 (HCT-15): 68.5 µM
GI50 (HOP-62): 90.8 µM (inactive)
GI50 (K562): 69 µM (inactive)
GI50 (LOX IMVI): 89.1 µM (inactive)
GI50 (MOLT-4): 47 µM (inactive)
GI50 (Malme-3M): > 100 µM (inactive)
GI50 (NCI-H460): 49.1 µM (inactive)
GI50 (OVCAR-3): 41.6 µM (inactive)
GI50 (OVCAR-5): 79.3 µM (inactive)
GI50 (SK-MEL-28): > 100 µM (inactive)
GI50 (SN12C): > 100 µM (inactive)

CCOC(=O)c1ccc(N2C(=O)/C(=C\OC)c3ccccc3C2=O)cc1
GI50 (EKVX): > 100 µM (inactive)
GI50 (HCC 2998): 46.2 µM (inactive)
GI50 (HCT-116): 34.6 µM (inactive)
GI50 (HCT-15): 36 µM
GI50 (K562): 34.2 µM (inactive)
GI50 (MOLT-4): 25.5 µM (inactive)
GI50 (Malme-3M): 18.7 µM (inactive)
GI50 (OVCAR-3): 36.6 µM (inactive)
GI50 (OVCAR-5): 43.1 µM (inactive)
GI50 (SK-MEL-28): 24.7 µM (inactive)
GI50 (SN12C): 24.5 µM (inactive)
GI50 (UACC-62): 23.2 µM (inactive)
GI50 (UO-31): 15.5 µM (inactive)

N#CC(NNC(=O)c1ccccc1O)c1ccccc1 (configuration not stated)
GI50 (HCT-116): 0.577 µM (active)
GI50 (HCT-15): 2.73 µM
GI50 (HOP-62): 5.89 µM (inactive)
GI50 (K562): 0.404 µM (active)
GI50 (LOX IMVI): 2.9 µM (inactive)
GI50 (MOLT-4): 2.15 µM (inactive)
GI50 (Malme-3M): 4.75 µM (inactive)
GI50 (NCI-H460): 0.646 µM (active)
GI50 (OVCAR-3): 3.12 µM (inactive)
GI50 (OVCAR-5): 22.1 µM (inactive)
GI50 (SK-MEL-28): > 100 µM (inactive)
GI50 (SN12C): 9.08 µM (inactive)
GI50 (UACC-62): 0.398 µM (active)
GI50 (UO-31): 0.562 µM (active)

CCOC(=O)NC(=O)c1cn(CCN2CCN(C(=O)CCCCCCCCCCC(=O)N3CCN(CCn4cc(C(=O)NC(=O)OCC)c(=O)[nH]c4=O)CC3)CC2)c(=O)[nH]c1=O
GI50 (HCC 2998): > 100 µM (inactive)
GI50 (HCT-116): > 100 µM (inactive)
GI50 (HOP-62): > 100 µM (inactive)
GI50 (K562): > 100 µM (inactive)
GI50 (LOX IMVI): 29.3 µM (inactive)
GI50 (MOLT-4): > 100 µM (inactive)
GI50 (Malme-3M): > 100 µM (inactive)
GI50 (OVCAR-3): > 100 µM (inactive)
GI50 (OVCAR-5): 51.6 µM (inactive)
GI50 (SK-MEL-28): > 100 µM (inactive)
GI50 (SN12C): > 100 µM (inactive)
GI50 (UO-31): > 100 µM (inactive)

CCCc1c(C(=O)OCC)[nH]c(-c2ccc(-c3[nH]c(C(=O)OCC)c(CCC)c3C(=O)OCC)s2)c1C(=O)OCC
GI50 (EKVX): 62.4 µM (inactive)
GI50 (HCC 2998): 20.6 µM (inactive)
GI50 (HCT-116): 33.3 µM (inactive)
GI50 (HCT-15): 92.5 µM
GI50 (K562): 79.4 µM (inactive)
GI50 (LOX IMVI): 18.1 µM (inactive)
GI50 (MOLT-4): 65 µM (inactive)
GI50 (Malme-3M): 39.5 µM (inactive)
GI50 (NCI-H460): 37 µM (inactive)
GI50 (OVCAR-3): 31.6 µM (inactive)
GI50 (OVCAR-5): 86.3 µM (inactive)
GI50 (SK-MEL-28): 95.5 µM (inactive)
GI50 (SN12C): > 100 µM (inactive)
GI50 (UACC-62): 32.1 µM (inactive)
GI50 (UO-31): 8.97 µM (inactive)

CCCCCC/C=C/CCCCCCCc1cccc(O)c1C(=O)O
GI50 (EKVX): 32.7 µM (inactive)
GI50 (HCT-116): > 100 µM (inactive)
GI50 (HCT-15): 38.4 µM
GI50 (HOP-62): 33.6 µM (inactive)
GI50 (K562): 37.2 µM (inactive)
GI50 (LOX IMVI): 70.6 µM (inactive)
GI50 (MOLT-4): 48.5 µM (inactive)
GI50 (Malme-3M): > 100 µM (inactive)
GI50 (NCI-H460): 9.75 µM (inactive)
GI50 (OVCAR-3): 42.3 µM (inactive)
GI50 (OVCAR-5): > 100 µM (inactive)
GI50 (SK-MEL-28): 83 µM (inactive)
GI50 (UACC-62): 36.4 µM (inactive)
GI50 (UO-31): 86.9 µM (inactive)

On1c(-c2ccccc2)c(-c2c(-c3ccccc3)n(O)c3ccccc23)c2ccccc21
GI50 (HCT-116): 48.5 µM (inactive)
GI50 (HCT-15): 41 µM
GI50 (K562): 36.6 µM (inactive)
GI50 (LOX IMVI): 26.2 µM (inactive)
GI50 (MOLT-4): 37.7 µM (inactive)
GI50 (Malme-3M): 32.3 µM (inactive)
GI50 (NCI-H460): 23.4 µM (inactive)
GI50 (OVCAR-3): 38 µM (inactive)
GI50 (SK-MEL-28): 61.9 µM (inactive)
GI50 (SN12C): 46.3 µM (inactive)
GI50 (UACC-62): 55.3 µM (inactive)
GI50 (UO-31): 15.5 µM (inactive)

O=C(COC(=O)c1cccc2c(=O)c3ccccc3[nH]c12)Nc1ccc(C(=O)O)cc1
GI50 (EKVX): > 100 µM (inactive)
GI50 (HCC 2998): > 100 µM (inactive)
GI50 (HCT-116): 84.7 µM (inactive)
GI50 (HOP-62): > 100 µM (inactive)
GI50 (K562): 70.6 µM (inactive)
GI50 (LOX IMVI): > 10 µM (inactive)
GI50 (MOLT-4): 37.8 µM (inactive)
GI50 (Malme-3M): > 100 µM (inactive)
GI50 (NCI-H460): > 100 µM (inactive)
GI50 (OVCAR-3): 50 µM (inactive)
GI50 (SK-MEL-28): > 100 µM (inactive)
GI50 (SN12C): > 100 µM (inactive)
GI50 (UACC-62): 71 µM (inactive)
GI50 (UO-31): 71.3 µM (inactive)

COC(=O)C1=C(C(=O)OC)C23CC4CCC2(C(=O)C1O3)C4(C)C (configuration not stated)
GI50 (HCC 2998): > 100 µM (inactive)
GI50 (HCT-116): 51.8 µM (inactive)
GI50 (HCT-15): > 100 µM
GI50 (K562): 56.2 µM (inactive)
GI50 (LOX IMVI): 84.5 µM (inactive)
GI50 (MOLT-4): 30.4 µM (inactive)
GI50 (Malme-3M): > 100 µM (inactive)
GI50 (NCI-H460): > 100 µM (inactive)
GI50 (OVCAR-3): > 100 µM (inactive)
GI50 (OVCAR-5): > 100 µM (inactive)
GI50 (SK-MEL-28): > 100 µM (inactive)
GI50 (SN12C): > 100 µM (inactive)
GI50 (UACC-62): 73.1 µM (inactive)
GI50 (UO-31): > 100 µM (inactive)

CC(C)(C)CC(C)(C)c1cc2c(O)c(c1)Cc1cc(C(C)(C)CC(C)(C)C)cc(c1O)Cc1cc(C(C)(C)CC(C)(C)C)cc(c1O)Cc1cc(C(C)(C)CC(C)(C)C)cc(c1O)Cc1cc(C(C)(C)CC(C)(C)C)cc(c1O)Cc1cc(C(C)(C)CC(C)(C)C)cc(c1O)C2
GI50 (EKVX): > 100 µM (inactive)
GI50 (HCC 2998): > 100 µM (inactive)
GI50 (HCT-116): > 100 µM (inactive)
GI50 (HCT-15): > 100 µM
GI50 (HOP-62): > 100 µM (inactive)
GI50 (K562): > 100 µM (inactive)
GI50 (MOLT-4): > 100 µM (inactive)
GI50 (Malme-3M): > 100 µM (inactive)
GI50 (NCI-H460): > 100 µM (inactive)
GI50 (OVCAR-3): > 100 µM (inactive)
GI50 (OVCAR-5): > 100 µM (inactive)
GI50 (SK-MEL-28): > 100 µM (inactive)
GI50 (SN12C): > 100 µM (inactive)
GI50 (UACC-62): > 100 µM (inactive)
GI50 (UO-31): > 100 µM (inactive)

CN(C)CC/C(=N\Nc1ccc([N+](=O)[O-])cc1)c1ccccc1
GI50 (EKVX): 14.3 µM (inactive)
GI50 (HCT-116): 11.7 µM (inactive)
GI50 (HCT-15): 13.6 µM
GI50 (HOP-62): 14.2 µM (inactive)
GI50 (K562): 3.48 µM (inactive)
GI50 (LOX IMVI): 5.25 µM (inactive)
GI50 (MOLT-4): 7.43 µM (inactive)
GI50 (Malme-3M): 19.4 µM (inactive)
GI50 (NCI-H460): 9.48 µM (inactive)
GI50 (OVCAR-3): 16.3 µM (inactive)
GI50 (OVCAR-5): 15 µM (inactive)
GI50 (SK-MEL-28): 12.7 µM (inactive)
GI50 (SN12C): 10.9 µM (inactive)
GI50 (UACC-62): 12.9 µM (inactive)
GI50 (UO-31): 2.1 µM (inactive)

O[C@]12c3ccccc3C1CCCCC2N1CCOCC1 (some centres not stated)
GI50 (EKVX): > 100 µM (inactive)
GI50 (HCT-116): > 100 µM (inactive)
GI50 (HCT-15): > 100 µM
GI50 (HOP-62): > 100 µM (inactive)
GI50 (K562): > 100 µM (inactive)
GI50 (LOX IMVI): > 100 µM (inactive)
GI50 (MOLT-4): > 10 µM (inactive)
GI50 (Malme-3M): > 100 µM (inactive)
GI50 (NCI-H460): > 100 µM (inactive)
GI50 (SK-MEL-28): > 100 µM (inactive)
GI50 (SN12C): > 100 µM (inactive)
GI50 (UACC-62): > 100 µM (inactive)
GI50 (UO-31): > 100 µM (inactive)

N#Cc1c2c(c(N=P(c3ccccc3)(c3ccccc3)c3ccccc3)n3c1nc1ccccc13)CCCC2
GI50 (EKVX): 20 µM (inactive)
GI50 (HCC 2998): 26.3 µM (inactive)
GI50 (HCT-116): 17.6 µM (inactive)
GI50 (HCT-15): 20.7 µM
GI50 (HOP-62): 19 µM (inactive)
GI50 (K562): 4.76 µM (inactive)
GI50 (LOX IMVI): 16.7 µM (inactive)
GI50 (MOLT-4): 19.6 µM (inactive)
GI50 (Malme-3M): 36 µM (inactive)
GI50 (NCI-H460): 13.3 µM (inactive)
GI50 (OVCAR-3): 15.3 µM (inactive)
GI50 (SK-MEL-28): 43.7 µM (inactive)
GI50 (SN12C): 13.1 µM (inactive)
GI50 (UACC-62): 12.1 µM (inactive)
GI50 (UO-31): 12.4 µM (inactive)
